The record followed here is patent US8124774B2, “Therapeutic ((phenyl)imidazolyl)methylquinolinyl compounds” (Allergan, Inc., priority 2007, dated 2012).

Holding throughout (type): cell-based
The target in one experiment is T1, alpha2B receptor (Homo sapiens, UniProt P18089).
T1 construct: expressed in transfected cells; host or cells: NIH-3T3
T1 sequence (P18089 1-450): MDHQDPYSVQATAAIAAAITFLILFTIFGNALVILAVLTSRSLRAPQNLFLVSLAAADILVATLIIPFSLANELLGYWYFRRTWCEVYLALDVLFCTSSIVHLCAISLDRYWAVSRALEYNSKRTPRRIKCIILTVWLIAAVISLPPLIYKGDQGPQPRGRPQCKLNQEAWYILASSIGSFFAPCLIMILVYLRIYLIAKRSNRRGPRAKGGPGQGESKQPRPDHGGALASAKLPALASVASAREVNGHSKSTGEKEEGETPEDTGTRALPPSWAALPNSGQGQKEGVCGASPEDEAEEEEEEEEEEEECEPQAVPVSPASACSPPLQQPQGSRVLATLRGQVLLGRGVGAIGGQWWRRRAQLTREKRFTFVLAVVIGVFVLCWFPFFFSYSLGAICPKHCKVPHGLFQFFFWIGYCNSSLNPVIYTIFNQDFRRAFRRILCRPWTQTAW
In words: RSAT assay (Receptor Selection and Amplification Technology), alpha2B. The note with it: for EC50: NIH-3T3 cells cotransfected with receptor and Gq/i5, read-out: Alpha 2B potency EC50; for Alpha 2B intrinsic activity (efficacy): value in parentheses, ratio of maximal effect to that of standard full agonist brimonidine (UK14304). Here is the method: (§1) Receptor Selection and Amplification Technology (RSAT) Assay
(§2) The RSAT assay measures a receptor-mediated loss of contact inhibition that results in selective proliferation of receptor-containing cells in a mixed population of confluent cells. The increase in cell number is assessed with an appropriate transfected marker gene such as β-galactosidase, the activity of which can be easily measured in a 96-well format. Receptors that activate the G protein, Gq, elicit this response. Alpha2 receptors, which normally couple to Gi, activate the RSAT response when coexpressed with a hybrid Gq protein that has a Gi receptor recognition domain, called Gq/i5.
(§3) NIH-3T3 cells are plated at a density of 2×10^6 cells in 15 cm dishes and maintained in Dulbecco's modified Eagle's medium supplemented with 10% calf serum. One day later, cells are cotransfected by calcium phosphate precipitation with mammalian expression plasmids encoding p-SV-β-galactosidase (5-10 μg), receptor (1-2 μg) and G protein (1-2 μg). 40 μg salmon sperm DNA may also be included in the transfection mixture. Fresh media is added on the following day and 1-2 days later, cells are harvested and frozen in 50 assay aliquots. Cells are thawed and 100 μl added to 100 μl aliquots of various concentrations of drugs in triplicate in 96-well dishes. Incubations continue 72-96 hr at 37° C. After washing with phosphate-buffered saline, β-galactosidase enzyme activity is determined by adding 200 μl of the chromogenic substrate (consisting of 3.5 mM o-nitrophenyl-β-D-galactopyranoside and 0.5% nonidet P-40 in phosphate buffered saline), incubating overnight at 30° C. and measuring optical density at 420 nm. The absorbance is a measure of enzyme activity, which depends on cell number and reflects a receptor-mediated cell proliferation. The efficacy or intrinsic activity is calculated as a ratio of the maximal effect of the drug to the maximal effect of a standard full agonist for each receptor subtype. Brimonidine, also called UK14304, the chemical structure of which is shown below, is used as the standard agonist for the alpha2A, alpha2B and alpha2c receptors. The EC50 is the concentration at which the drug effect is half of its maximal effect.
(§4) EC50 values are nanomolar. ND stands for “not determinable” at concentrations less than 10 micromolar. IA stands for “intrinsic activity.”

The target of the next experiment is T2, alpha2c receptor (Homo sapiens, UniProt P18825).
T2 construct: expressed in transfected cells; host or cells: NIH-3T3
T2 sequence (P18825 1-462): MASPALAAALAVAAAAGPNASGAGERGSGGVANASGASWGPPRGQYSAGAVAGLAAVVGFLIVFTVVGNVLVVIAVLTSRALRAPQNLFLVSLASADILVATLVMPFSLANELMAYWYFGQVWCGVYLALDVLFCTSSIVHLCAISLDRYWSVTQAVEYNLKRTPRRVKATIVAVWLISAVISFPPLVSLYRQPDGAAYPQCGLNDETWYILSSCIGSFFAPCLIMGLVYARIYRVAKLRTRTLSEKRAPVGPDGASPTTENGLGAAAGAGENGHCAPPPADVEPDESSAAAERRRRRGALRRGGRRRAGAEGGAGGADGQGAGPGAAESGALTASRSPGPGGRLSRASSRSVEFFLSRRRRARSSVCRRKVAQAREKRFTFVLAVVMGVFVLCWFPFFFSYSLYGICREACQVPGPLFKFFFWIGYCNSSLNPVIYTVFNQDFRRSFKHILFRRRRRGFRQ
Briefly: RSAT assay (Receptor Selection and Amplification Technology), alpha2C. The conditions noted are these: for EC50: NIH-3T3 cells cotransfected with receptor and Gq/i5, read-out: Alpha 2C potency EC50; for Alpha 2C intrinsic activity (efficacy): value in parentheses, ratio of maximal effect to that of standard full agonist brimonidine (UK14304). Here is the method: as §1, §2, §3, §4

Another experiment concerns the target T3, alpha2A receptor (Homo sapiens, UniProt P08913).
T3 construct: expressed in transfected cells; host or cells: NIH-3T3
T3 sequence (P08913 1-465): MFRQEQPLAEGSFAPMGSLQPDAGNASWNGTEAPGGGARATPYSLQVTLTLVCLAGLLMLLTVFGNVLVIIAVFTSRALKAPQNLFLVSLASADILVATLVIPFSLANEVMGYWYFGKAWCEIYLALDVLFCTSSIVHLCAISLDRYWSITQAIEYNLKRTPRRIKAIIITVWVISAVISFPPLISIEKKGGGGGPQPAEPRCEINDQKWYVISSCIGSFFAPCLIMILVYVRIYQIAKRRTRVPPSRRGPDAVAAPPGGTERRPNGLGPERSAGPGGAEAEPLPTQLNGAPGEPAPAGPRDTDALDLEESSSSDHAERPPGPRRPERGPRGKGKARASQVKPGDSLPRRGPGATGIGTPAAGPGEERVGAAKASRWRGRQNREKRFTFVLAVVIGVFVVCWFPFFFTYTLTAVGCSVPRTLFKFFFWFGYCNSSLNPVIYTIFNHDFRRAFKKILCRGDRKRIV
Briefly: RSAT assay (Receptor Selection and Amplification Technology), alpha2A. The conditions noted are these: value in parentheses; ratio of maximal effect to that of standard full agonist brimonidine (UK14304). As for the experimental part: as §1, §2
NIH-3T3 cells are plated at a density of 2×10^6 cells in 15 cm dishes and maintained in Dulbecco's modified Eagle's medium supplemented with 10% calf serum. […] After washing with phosphate-buffered saline, β-galactosidase enzyme activity is determined by adding 200 μl of the chromogenic substrate (consisting of 3.5 mM o-nitrophenyl-β-D-galactopyranoside and 0.5% nonidet P-40 in phosphate buffered saline), incubating overnight at 30° C. and measuring optical density at 420 nm. The absorbance is a measure of enzyme activity, which depends on cell number and reflects a receptor-mediated cell proliferation. […]

SMILES strings stand for the structures.

Consider `c1ccc(C(c2cnc[nH]2)c2cccc3ncccc23)cc1` (stereo not shown) [5-((1H-imidazol-5-yl)(phenyl)methyl)quinoline], for which, at alpha2B receptor, the EC50 came out at 319 nM and the “Alpha 2B intrinsic activity (efficacy)” value was determined as 0.89. In addition, at alpha2c receptor, the EC50 was 50 nM and the “Alpha 2C intrinsic activity (efficacy)” value is on record as 0.33. Also, on alpha2A receptor, the “Alpha 2A intrinsic activity (efficacy)” value was found to be 0.12.
The matching figures for `c1ccc(C(c2cnc[nH]2)c2cccc3cccnc23)cc1` (stereo not shown) [8-((1H-imidazol-5-yl)(phenyl)methyl)quinoline]: 23 nM, 1.16, 832 nM, 0.61 and 0.09.
